According to article PMC6930223 (Scientific Reports, 2019):

Assays:
hERG1a/1b current = hERG1a/1b current (Homo sapiens, UniProt Q12809)
Experimental: All working solutions were sterile-filtered, stored at −20 °C and thawed to room temperature before use.
Prior to electrophysiology study, the HEK293-hERG1a/1b cells were first grown in complete medium without selection antibiotics for 6 days. Approximately 5.0 × 10^5 cells were then plated onto an uncoated 96-mm cell culture dish for a maximum of 3 days. […] The cell suspension was then transferred into a 15-ml polypropylene tube and centrifuged at 100 × g for 3 min. Subsequently, the cell pellet was resuspended in extracellular solution to obtain a final density of 2 × 10^6–3 × 10^6 cells/ml and incubated on ice for 20 min to allow cell recovery. The electrophysiology studies were performed using NPC®-1 chips (Nanion Technologies, Germany) and Port-a-Patch system (Nanion Technologies, Germany) following manufacturer’s instructions, within the next 2 h. For characterization and determination of the hERG1a/1b current inhibition, a series of voltage protocols were applied as published previously.
The hERG1a/1b current was recorded in cells achieving whole-cell configuration. Briefly, a single cell was first held at −80 mV, the theoretical cardiac resting membrane potential, on the aperture of the NPC-1 chip (Nanion Technologies, Germany). To characterize the I-V relationship, the cell was depolarized to test potentials ranging from −60 mV to +50 mV for 4 s in […], followed by a 5-s step to −50 mV before returning to −80mV.
To determine the pharmacological effects of the HEK293-hERG1a/1b cells, the cells were perfused with test compound solutions using an external perfusion system. […] The mean of six successive Itail was recorded for each test concentration. Four independent experiments were conducted to derive the dose-response curve.

[1] = tested on: GIRK (G protein-coupled inward rectifier potassium) channels; design: method as in PMID 27260674; conditions: heterologous expression systems; cited from earlier work

mitragynine
Hill coefficient (h) (hERG1a/1b current; dose-response fit of hERG1a/1b tail current inhibition): 0.61
IC50 (hERG1a/1b current; read-out: IC50 of hERG1a/1b current inhibition, peak tail current, step pulse protocol, HEK293-hERG1a/1b cells, four independent experiments): 333 nM
effect on GIRK channels [1]: inhibit
